The target of test [1] is nuclear factor-kappa B (NF-kB)-inducing kinase (NIK) (Homo sapiens (Human), UniProt Q99558). Description: NIK enzyme inhibition assay (Transcreener ADP, NIK ADP-FP). In kind it is biochemical. The settings on record: purified NIK 0.5 nM, 10 μM ATP, fluorescence polarization; read-out: NIK ADP-FP (Ki μM). (In general: Polarisation of emitted light reports the rotation of a fluorescent probe.)

The subject of test [2] is REL-A (p65) nuclear translocation, HeLa cells. The experiment in a line: REL-A (p65) nuclear translocation assay in HeLa cells (classical NF-kB signaling, TNF-α stimulated). In kind it is cell-based. The note with it: Homo sapiens, 0.5 h; HeLa cells, 10 ng/mL TNF-α for 30 minutes; read-out: REL-A HeLa Transloc Assay (IC50). The procedure: (§1) Several assays were developed to profile the cellular activities of NIK inhibitors.
(§2) (2) A second set of cell assay are used to define the selectivity of NIK inhibitors toward inhibition of classical vs. non-classical NF-kB signaling and rely on quantification of the nuclear translocation of p52 (NF-kB2) and REL-A (p65) using high content cellular imaging. For the p52 (non-classical NF-kB signaling) nuclear translocation assay, HeLa cells are treated with different concentrations of compounds (0.2% DMSO final) in medium containing 10% fetal bovine serum and then stimulated with 100 ng/mL of an anti-lymphotoxin beta receptor antibody (R&D Systems) for 5 hours. In the REL-A nuclear translocation assay, HeLa cells are incubated with compounds (0.2% DMSO final) for 4.5 hours in medium containing 10% fetal bovine serum before stimulating them with 10 ng/mL tumor necrosis factor (TNF)-α (R&D Systems) for 30 minutes. Cells are fixed with 4% paraformaldehyde, permeabilized by adding 0.1% Triton X-100 in phosphate buffered saline, and then are incubated with either 2 ug/mL anti-p52 antibody (Millipore) or 400 ng/mL anti-REL-A (p65) antibody (Santa Cruz Biotechnology). Finally, the cells are incubated with an Alexa488-labeled secondary antibody (Invitrogen) and DRAQ5 DNA stain (Biostatus). Imaging is carried out using an Opera reader (Perkin Elmer) and data are analyzed with the aid of Acapella software (Perkin Elmer). The p52 or REL-Atranslocation into the nucleus is quantified by the ratio of the nuclear to cytoplasmic signal intensity. […] The compounds in listed in Table 1 have the corresponding inhibitory value (IC50 in micromolar) for NIK p52 Translocation Assay as set forth in Table 2.
(§3) The compounds in listed in Table 1 have the corresponding inhibitory values (IC50 in micromolar) for the Translocation Assays as set forth in Table 2.

The test system of test [3] is p52 (NF-kB2) nuclear translocation, HeLa cells. Description: p52 (NF-kB2) nuclear translocation assay in HeLa cells (non-classical NF-kB signaling, anti-lymphotoxin beta receptor antibody stimulated). In kind it is cell-based. The note with it: Homo sapiens, 100 ng/mL anti-lymphotoxin beta receptor antibody for 5 hours, read-out: p52 HeLa Transloc Assay (IC50). How it is done:
as §1, §2, §3

Each structure is given as a SMILES string.

nuclear factor-kappa B (NF-kB)-inducing kinase (NIK), sequence (Q99558 whole entry): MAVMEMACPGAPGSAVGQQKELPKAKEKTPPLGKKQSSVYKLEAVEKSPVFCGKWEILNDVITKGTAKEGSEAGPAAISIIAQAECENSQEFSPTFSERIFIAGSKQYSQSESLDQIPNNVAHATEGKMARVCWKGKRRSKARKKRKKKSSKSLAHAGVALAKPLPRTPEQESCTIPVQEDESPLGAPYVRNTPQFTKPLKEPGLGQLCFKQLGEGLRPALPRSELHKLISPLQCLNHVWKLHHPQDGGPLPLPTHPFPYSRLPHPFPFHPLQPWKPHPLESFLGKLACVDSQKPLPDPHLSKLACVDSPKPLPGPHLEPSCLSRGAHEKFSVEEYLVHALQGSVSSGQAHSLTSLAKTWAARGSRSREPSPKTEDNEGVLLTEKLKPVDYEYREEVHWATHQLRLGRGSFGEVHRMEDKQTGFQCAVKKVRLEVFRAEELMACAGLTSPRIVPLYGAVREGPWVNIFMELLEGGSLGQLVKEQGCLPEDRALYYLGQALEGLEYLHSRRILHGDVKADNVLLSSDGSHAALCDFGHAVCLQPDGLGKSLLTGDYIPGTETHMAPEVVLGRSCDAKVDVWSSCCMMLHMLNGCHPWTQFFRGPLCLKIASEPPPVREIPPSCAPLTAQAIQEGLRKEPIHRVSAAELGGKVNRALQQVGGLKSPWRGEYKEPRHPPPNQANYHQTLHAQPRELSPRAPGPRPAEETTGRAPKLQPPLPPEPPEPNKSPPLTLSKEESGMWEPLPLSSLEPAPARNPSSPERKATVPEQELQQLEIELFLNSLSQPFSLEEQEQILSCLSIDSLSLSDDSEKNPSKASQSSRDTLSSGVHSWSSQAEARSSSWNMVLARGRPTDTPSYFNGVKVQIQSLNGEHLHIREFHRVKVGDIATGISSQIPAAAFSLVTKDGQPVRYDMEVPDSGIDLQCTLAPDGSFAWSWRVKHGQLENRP

As a reminder, the Ki is the equilibrium dissociation constant of an inhibitor or competing ligand from its target. By IC50 is commonly meant the concentration needed to halve the response being measured. In the case of `CN1CC[C@@](O)(C#Cc2cccc(-n3nc(C(N)=O)c4cc(CO)ccc43)c2)C1=O` [Compound 35, 5-(hydroxymethyl)-1-[3-[2-[(3R)-3-hydroxy-1-methyl-2-oxo-pyrrolidin-3-yl]ethynyl]phenyl]indazole-3-carbox-amide], in test [1], the Ki worked out at 1.48 nM. Besides, the IC50 was determined as 20 µM in test [2] and 737 nM in test [3].
On to `CN1CC[C@@](O)(C#Cc2cc(-n3nc(C(N)=O)c4cccnc43)cc(C(F)(F)F)c2)C1=O` [Compound 36, 1-[3-[2-[(3R)-3-hydroxy-1-methyl-2-oxo-pyrrolidin-3-yl]ethynyl]-5-(trifluorometh-yl)phenyl]pyrazolo[3,4-b] pyridine-3-carboxamide], for which the Ki in test [1] was 5.53 nM. Further, the IC50 amounted to 20 µM in test [2] and 164 nM in test [3].
Taken in the same sequence, the figures for `CN1CC[C@@](O)(C#Cc2cccc(-n3nc(C(N)=O)c4c(Cl)cccc43)c2)C1=O` [Compound 39, 4-chloro-1-[3-[2-[(3R)-3-hydroxy-1-methyl-2-oxo-pyrroli-din-3-yl]ethynyl]phenyl] indazole-3-carboxamide] were 1.21 nM, 20 µM and 108 nM.
For the molecule `CN1CC[C@@](O)(C#Cc2cccc(-n3nc(C(N)=O)c4cc(CC#N)ccc43)c2)C1=O` [Compound 41, 5-(cyanomethyl)-1-[3-[2-[(3R)-3-hydroxy-1-methyl-2-oxo-pyrrolidin-3-yl]ethynyl]phenyl]indazole-3-carboxamide], the Ki in test [1] worked out at 0.32 nM. For the same molecule, the IC50 was determined as 20 µM in test [2] and 52.5 nM in test [3].
In the same order, the values of `CN1CC[C@@](O)(C#Cc2cccc(-n3nc(C(N)=O)c4cc(C#N)ccc43)c2)C1=O` [Compound 42, 5-cyano-1-[3-[2-[(3R)-3-hy-droxy-1-methyl-2-oxo-pyrroli-din-3-yl]ethynyl]phenyl] indazole-3-carboxamide] are 0.64 nM, 20 µM and 392 nM.
Taken in the same sequence, the figures for `C[C@@H](O)c1ccc2c(c1)c(C(N)=O)nn2-c1cccc(C#C[C@]2(O)CCN(C)C2=O)c1` [Compound 43, 5-[(1R)-1-hydroxyethyl]-1-[3-[2-[(3R)-3-hydroxy-1-meth-yl-2-oxo-pyrrolidin-3-yl]ethynyl]phenyl]indazole-3-carboxamide] were 1.6 nM, 20 µM and 921 nM.
In the same order, the values of `CN1CC[C@@](O)(C#Cc2cc(Cl)cc(-n3nc(C(N)=O)c4cccnc43)c2)C1=O` [Compound 44, 1-[3-chloro-5-[2-[(3R)-3-hy-droxy-1-methyl-2-oxo-pyrroli-din-3-yl]ethynyl]phenyl] pyrazolo[3,4-b]pyridine-3-carboxamide] are 0.5 nM, 20 µM and 62 nM.
`CN1CC[C@@](O)(C#Cc2cccc(-n3nc(C(N)=O)c4ccc(C#N)cc43)c2)C1=O` [Compound 46, 6-cyano-1-[3-[2-[(3R)-3-hy-droxy-1-methyl-2-oxo-pyrroli-din-3-yl]ethynyl]phenyl] indazole-3-carboxamide]: the Ki in test [1] stood at 0.5 nM. The IC50 in test [2] stood at 20 µM; in test [3], 123 nM.
Taken in the same sequence, the figures for `CNc1nccc2c1c(C(N)=O)nn2-c1cccc(C#C[C@]2(O)CCN(C)C2=O)c1` [Compound 49, 1-[3-[2-[(3R)-3-hydroxy-1-methyl-2-oxo-pyrrolidin-3-yl]ethynyl]phenyl]-4-(meth-ylamino)pyrazolo[4,3-c]pyri-dine-3-carboxamide] were 0.05 nM, 8 µM and 7.7 nM.
Turning to `CN1CC[C@@](O)(C#Cc2ccnc(-n3nc(C(N)=O)c4c3CCC4)c2)C1=O` [Compound 56, 1-[4-[2-[(3R)-3-hydroxy-1-methyl-2-oxo-pyrrolidin-3-yl]ethynyl]-2-pyridyl]-5,6-dihydro-4H-cyclopenta[c]py-razole-3-carboxamide], the Ki in test [1] was 0.87 nM. For the same molecule, the IC50 in test [2] was 20 µM; in test [3], 355 nM.
Taken in the same sequence, the figures for `CN1CC[C@@](O)(C#Cc2cccc(-n3nc(C(N)=O)c4c3CCCC4)c2)C1=O` [Compound 57, 1-[3-[2-[(3R)-3-hydroxy-1-methyl-2-oxo-pyrrolidin-3-yl]ethynyl]phenyl]-4,5,6,7-tetra-hydroindazole-3-carbox-amide] were 1.4 nM, 20 µM and 405 nM.
Taken in the same sequence, the figures for `Cc1cc([C@](C)(O)C#Cc2ccnc(-n3nc(C(N)=O)c4c3CCCC4)c2)no1` [Compound 60, 1-[4-[(3R)-3-hydroxy-3-(5-methylisoxazol-3-yl)but-1-ynyl]-2-pyridyl]-4,5,6,7-tetra-hydroindazole-3-carbox-amide] were 13.7 nM, 20 µM and 2310 nM.
As to `CN1CC[C@@](O)(C#Cc2ccnc(-n3nc(C(N)=O)c4ccc(F)cc43)c2)C1=O` [Compound 63, 6-fluoro-1-[4-[2-[(3R)-3-hy-droxy-1-methyl-2-oxo-pyrroli-din-3-yl]ethynyl]-2-pyri-dyl]indazole-3-carboxamide], the Ki in test [1] worked out at 0.1 nM. For the same molecule, the IC50 in test [2] was 2 µM; in test [3], 27 nM.
Consider `CN1CC[C@@](O)(C#Cc2ccnc(-n3nc(C(N)=O)c4c3CCC(C)(C)C4)c2)C1=O` [Compound 64, 1-[4-[2-[(3R)-3-hydroxy-1-methyl-2-oxo-pyrrolidin-3-yl]ethynyl]-2-pyridyl]-5,5-dimethyl-6,7-dihydro-4H-inda-zole-3-carboxamide], for which the Ki in test [1] came to 3.06 nM. For the same molecule, the results for the 50% inhibitory concentration (IC50) in test [2] and in test [3] were 3.03 µM and 2310 nM, respectively.
Consider `COc1ccc2c(c1)c(C(N)=O)nn2-c1cc(C#C[C@]2(O)CCN(C)C2=O)ccn1` [Compound 65, 1-[4-[2-[(3R)-3-hydroxy-1-methyl-2-oxo-pyrrolidin-3-yl]ethynyl]-2-pyridyl]-5-meth-oxy-indazole-3-carboxamide], for which, in test [1], the Ki is 0.05 nM. For the same molecule, the IC50 in test [2] was 2 µM; in test [3] it was 14 nM.
In the same order, the values of `CN1CC[C@@](O)(C#Cc2ccnc(-n3nc(C(N)=O)c4cc(Br)ccc43)c2)C1=O` [Compound 66, 5-bromo-1-[4-[2-[(3R)-3-hy-droxy-1-methyl-2-oxo-pyrroli-din-3-yl]ethynyl]-2-pyri-dyl]indazole-3-carboxamide] are 0.15 nM, 20 µM and 55 nM.
Taken in the same sequence, the figures for `Cc1nnc([C@](C)(O)C#Cc2cccc(-n3nc(C(N)=O)c4cccnc43)c2)o1` [Compound 67, 1-[3-[(3R)-3-hydroxy-3-(5-methyl-1,3,4-oxadiazol-2-yl)but-1-ynyl]phenyl]pyrazo-lo[3,4-b]pyridine-3-carbox-amide] were 3.14 nM, 20 µM and 893 nM.
Regarding `CN1CC[C@@](O)(C#Cc2cccc(-n3nc(C(N)=O)c4c3COCC4)c2)C1=O` [Compound 69, 1-[3-[2-[(3R)-3-hydroxy-1-methyl-2-oxo-pyrrolidin-3-yl]ethynyl]phenyl]-5,7-dihy-dro-4H-pyrano[3,4-c]pyrazole-3-carboxamide], in test [1], the Ki came out at 3.98 nM. The IC50 in test [2] worked out at 20 µM; in test [3], 945 nM.
Taken in the same sequence, the figures for `CN1CC[C@@](O)(C#Cc2cccc(-n3nc(C(N)=O)c4c3CCOC4)c2)C1=O` [Compound 70, 1-[3-[2-[(3R)-3-hydroxy-1-methyl-2-oxo-pyrrolidin-3-yl]ethynyl]phenyl]-6,7-dihy-dro-4H-pyrano[4,3-c]pyrazole-3-carboxamide] were 0.75 nM, 20 µM and 864 nM.
With `NC(=O)c1nn(-c2cc(C#C[C@]3(O)CCNC3=O)ccn2)c2cc(F)ccc12` [Compound 71, 6-fluoro-1-[4-[2-[(3R)-3-hy-droxy-2-oxo-pyrrolidin-3-yl]ethynyl]-2-pyridyl]indazole-3-carboxamide], the Ki in test [1] was determined as 0.64 nM. Further, the IC50 was determined as 20 µM in test [2] and 178 nM in test [3].
In the same order, the values of `NC(=O)c1nn(-c2cc(C#C[C@]3(O)CCc4cccnc43)ccn2)c2cc(F)ccc12` [Compound 72, 6-fluoro-1-[4-[2-[(7R)-7-hy-droxy-5,6-dihydrocyclopen-ta[b]pyridin-7-yl]ethynyl]-2-pyridyl]indazole-3-carbox-amide] are 0.14 nM, 20 µM and 247 nM.

Values taken from US9605005B2, “Alkynyl alcohols and methods of use” (Genentech, Inc., priority 2013, dated 2017).
